Measurements published in patent US10995068B2, “Synthetic sphingolipid-like molecules, drugs, methods of their synthesis and methods of treatment” (The Regents of the University of California, priority 2015, dated 2021).
Where two headings read alike, the source gives them in different places.

Experiments:
[1] = test system: Lung (A-549) cancer cell line; experiment: IC50 in cancer cell lines (Table 3), lung; type: cell-based, human; settings: Mean ± SEM, n ≥ 3
Description: (§1) Having observed a suitable potency of some embodiments of the invention, including, at least with compounds 3-6, 14 in prostate cancer cell lines, other cancer cell lines were tested with these compounds. […] Compounds that were active in prostate cancer cell lines also killed BCR-Abl-positive leukemia cells with similar potency to FTY720.
(§2) Cell culture studies: Sup-B15 cells are maintained at 2-3 million/mL in RPMI 1640 (Mediatech) supplemented with 10% fetal calf serum (FCS, Sigma-Aldrich), 10 mM Hepes (Mediatech), 55 μM β-mercaptoethanol (Sigma-Aldrich), 2 mM L-glutamine (Mediatech), and antibiotics. All adherent cells are maintained at 70-80% confluence. Cell are cultured in the following media: PC3 & A549, Ham's F12K (Corning Cell Gro) supplemented with 10% FCS and antibiotics; DU145 cells, MEM (Corning Cell Gro) supplemented with 10% FCS, 1 mM sodium pyruvate (Mediatech), and antibiotics; SW620 & MDA-MB-231, DMEM (Corning Cell Gro) with 10% FCS, 1 mM sodium pyruvate (Mediatech), and antibiotics; Panc-1 cells, DMEM (Corning Cell Gro) supplemented with 10% FCS and antibiotics. All of the above cell lines are available from the ATCC.
(§3) Viability assays: Cell Titer Glo assays (Cell Titer Glo Luminescent Cell Viability Assay kit, cat #G7571, Promega Corporation) are performed in clear bottom 96-well black cell culture plates (cat #655090, Greiner Bio-One, NC, USA). After plating at 1,000 cells/well in volume of 100 μl, cells are left undisturbed for at least 24 h before drug addition. After 72 h, cells are prepared for analysis by adding 10 μl of 0.1% Triton-X100 in PBS with shaking for 1 min at room temperature (RT). Cell Titer-Glo cell lysis reagent (20 μl) is then added followed by 1 min of shaking and a 10 min incubation in the dark at RT. Luminescence is detected using an IVIS imaging system (IVIS Lumina II, Perkin Elmer, USA). […] IC50s are determined using GraphPad Prism (GraphPad Software, Inc, La Jolla, Calif.). SupB-15 viability was determined by flow cytometry. Cell Titer Glo assays were performed with the other cell lines.

[2] = test system: Breast (MDA-MB-231) cancer cell line; experiment: IC50 in cancer cell lines (Table 3), breast; type: cell-based, human; settings: Mean ± SEM, n ≥ 3
Description: as §1, §2, §3

[3] = test system: PC3 prostate cancer cells; experiment: Cell viability by vital dye exclusion and flow cytometry in PC3; type: cell-based, human; settings: vital dye exclusion (DAPI) and flow cytometry, 72 h
Description: Thus, to determine whether analogues in accordance with embodiments of the invention are cytotoxic, studies were conducted using vital dye exclusion and flow cytometry (Table 2).
as §3

[4] = test system: Leukemia (SupB-15) cells; experiment: IC50 in cancer cell lines (Table 3), leukemia; type: cell-based, human; settings: flow cytometry, Mean ± SEM, n ≥ 3
Description: as §1, §2, §3

[5] = test system: PC3 prostate cancer cells; experiment: Cell Titer Glo proliferation assay in PC3; type: cell-based, human; settings: for IC50: Cell Titer Glo, 72 h, Mean ± SEM, n ≥ 3, read-out: IC50 values in prostate cancer cell lines, PC3; for activity in the prostate cancer cell proliferation assay (in words): PC3 and DU145, Cell Titer Glo
Outline: (§4)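 Cells plated at 1,000 cells/well and left at least 24 h, then exposed to compound for 72 h. Permeabilised with 0.1% Triton-X100, lysed with Cell Titer-Glo reagent, luminescence read; IC50 from dose-response curves. PC3 grown in F12K with 10% FCS, DU145 in MEM with 10% FCS and pyruvate.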

[6] = test system: Pancreas (PANC-1) cancer cell line; experiment: IC50 in cancer cell lines (Table 3), pancreas; type: cell-based, human; settings: Mean ± SEM, n ≥ 3
Description: as §1, §2, §3

[7] = test system: Colon (SW-620) cancer cell line; experiment: IC50 in cancer cell lines (Table 3), colon; type: cell-based, human; settings: Mean ± SEM, n ≥ 3
Description: as §1, §2, §3

[8] = test system: PP2A; experiment: PP2A phosphatase activity; type: biochemical, murine; settings: PP2A immunoprecipitated from FL5.12 cell lysates, phosphopeptide dephosphorylation
Text: Furthermore, many embodiments of the invention are directed to azacyclic constrained sphingolipid-like molecules inducing internalization of nutrient transporters via a mechanism that activates PP2A. […] Thus, activation of PP2A is very peculiar to certain sphingolipid structures. Activation of PP2A by FTY720 and SH-BC-893 also stimulated vacuolation, and as the PP2A inhibitors calyculin A and SV40 small t antigen, each blocked this effect (FIG. 59C). Of note, YM201636-induced vacuolation was unaffected by PP2A inhibition (FIG. 60B). In addition, inhibiting PP2A restored PIKfyve to the proper location within vacuoles in cells treated with FTY720 or SH-BC-893 (FIG. 57D).
PP2A phosphatase activity. PP2A activity was measured using a PP2A immunoprecipitation phosphatase assay kit (EMD Millipore). Briefly, the catalytic subunit of PP2A was immunoprecipitated from FL5.12 cell lysates with 4 μg anti-PP2A, C subunit. After four washes, the activity of immunoprecipitated PP2A was assessed by dephosphorylation of the phosphopeptide according to the manufacturer's instructions in the presence or absence of C2-ceramide, dihydro-C2-ceramide, FTY720, SH-BC-893, or calyculinA.

[9] = test system: DU145 prostate cancer cells; experiment: Cell Titer Glo proliferation assay in DU145; type: cell-based, human; settings: Mean ± SEM, n ≥ 3, read-out: IC50 values in prostate cancer cell lines, DU145
Outline: as §4

IC50 [1] | IC50 [2] | IC50 [3] | IC50 [4] | IC50 [5] | IC50 [6] | IC50 [7] | IC50 ([9]; 72 h) | Compound | IC50 ([1]; Homo sapiens, A549) | IC50 ([2]; Homo sapiens, MDA-MB-231) | IC50 ([3]; Homo sapiens) | IC50 ([4]; Homo sapiens, SUP-B15) | IC50 ([5]; Homo sapiens) | IC50 ([6]; Homo sapiens, PANC-1) | IC50 ([7]; Homo sapiens, SW-620) | PP2A activation [8] | IC50 ([9]; Homo sapiens, DU-145, 72 h) | activity in the prostate cancer cell proliferation assay (in words) [5]
 |  |  |  |  |  |  |  | CCCCCCCCc1ccc(CCC(N)(CO)CO)cc1.Cl [FTY720, 2-Amino-2-[2-(4-octylphenyl)ethyl]propane 1,3-diol hydrochloride, reference compound] | 6 ± 0.4 µM | 4 ± 0.1 µM | 4.8 ± 0.1 µM | 6.8 ± 0.7 µM | 2.6 ± 0.2 µM | 4.6 ± 0.5 µM | 2.8 ± 0.1 µM | activating PP2A | 3.1 ± 0.2 µM | 
8.4 ± 1.2 µM | 4.9 ± 0.6 µM | 5.4 ± 0.6 µM | 5.9 ± 0.1 µM | 3 ± 0.4 µM | 5 ± 0.9 µM | 2.1 ± 0.2 µM | 3.7 ± 0.4 µM | CCCCCCCCc1ccc([C@@H]2CCN[C@H]2CO)cc1.Cl [Compound 6] |  |  |  |  |  |  |  |  |  | as active as FTY720
 |  |  |  |  |  |  |  | CCCCCCCCc1ccc([C@H]2CCN[C@@H]2CO)cc1.Cl [Compound 5, (2S,3R)-2-(hydroxymethyl)-3-(4-octylphenyl)Pyrrolidinium chloride] | 8.9 ± 1.4 µM | 2.1 ± 0.2 µM | 5.5 ± 0.4 µM | 5.1 ± 0.9 µM | 4 ± 0.7 µM | 3.3 ± 0.5 µM | 2.5 ± 0.1 µM | activating PP2A | 3.8 ± 0.4 µM | as active as FTY720
